Experimental data published in patent publication US7354949B2, “Therapeutic agent for bladder irritative symptoms associated with benign prostatic hyperplasia” (Kyowa Hakko Kogyo Co., Ltd., priority 2001, dated 2008).

Legend:
[1] = test system: rats with partial urethral obstruction; assay: Inhibitory activity on urinary frequency due to partial urethral obstruction (micturition test in metabolic cages); type: in vivo, rat
Experimental: (§1) The experiment was carried out according to the method of Saito, et al. [J. Urol., Vol. 150, pp. 1045-1051 (1993)].
(§2) Male SD rats of 8 to 9 weeks of age (supplied by Japan SLC) were used in the test. Five to seven animals of these rats were put in each metal cage and reared by allowing them to freely take commercially available chow and water, in an animal room at room temperature between 19 and 25° C. and humidity between 30 and 70% under illumination for 12 hours (from 7:00 a.m. to 7:00 p.m.) per day.
The rats were subjected to operation of partial urethral obstruction. Each rat was anesthetized by intraperitoneal administration of 50 mg/kg pentobarbital sodium (Dainippon Pharmaceutical Co., Ltd.) and placed in the supine position. The abdominal midline incision was made in a length of about 1 cm to expose the bladder, prostate and the urethra. After the bladder neck and base were peeled from the prostate, two surgical suture threads (No. 3, Natsume Seisakusho Co., Ltd.) were passed behind the urethral base. A polyethylene tube (PE-200, Nippon Becton Dickinson Co., Ltd.) was placed along the urethra, and the urethra was loosely double-ligated together with the tube. The ligation was made in such a manner that the urethra was not pressed with the polyethylene tube and the suture was not slack. Then, the polyethylene tube was pulled out and the urethra was partially obstructed. The incised part of abdomen was sutured with a surgical thread.
Five to seven days after the partial urethral obstruction operation, the rats with partial urethral obstruction and the sham-operated rats were put in metabolic cages (KN-649, Natsume Seisakusho Co., Ltd.). For acclimation, the rats were reared for one day with free drinking and feeding, and the micturition test was started the following day. The amount of urination in the rats was continuously measured as the weight using an electronic balance (HF-200, A & D Company Ltd.), and was recorded on a thermal array recorder (RTA-1200, Nihon Kohden Corp.) via a direct current amplifier (AD-601G, Nihon Kohden Corp.). The data were collected during the light period under illumination (9:00-18:00) and the dark period without illumination (19:00-4:00), and the number of micturitions and the micturition volume in each period were measured to calculate the urinary frequency (the number of micturitions per 9 hours), the voided volume per micturition and the total urine volume as the measurement parameters. The voided volume per micturition was calculated by dividing the total urine volume per 9 hours by the urinary frequency per 9 hours. On the next day, a test compound or a vehicle (0.5 w/v% aqueous methylcellulose 400 cP solution) was orally administered twice (between 8:00 and 9:00, and between 18:00 and 19:00). The number of micturitions and the urine volume were measured from 9:00 to 18:00 and from 19:00 to 4:00 in the same manner as on the previous day to obtain the measurement values. The changes in the values of each parameter induced by the administration of the compound were also calculated. In the sham-operated group, the urinary frequency, the voided volume per micturition and the total urine volume obtained on the first day of the micturition test were compared with those in the groups of partial urethral obstruction. The average±standard error of the urinary frequency, voided volume per micturition and the total urine volume was calculated for each group.

[2] = test system: rats with partial urethral obstruction; assay: Activity to increase the bladder capacity of rats with partial urethral obstruction (intravesical saline infusion); type: in vivo, rat; details: summary of Test Example 2
Experimental: as §1
as §2, with “to seven rats were” for “to seven animals of these rats were”, “room at a room temperature” for “room at room temperature”
The rats were subjected to operation of partial urethral obstruction. […]
Five to seven days after the operation of the partial urethral obstruction and the catheter implantation, the rats with partial urethral obstruction and the sham-operated rats were put in Bollman cages (KN-326-1, Natsume Seisakusho Co., Ltd.) under restraint. […] One end of the cock was connected to a pressure transducer (DX-360, Nihon Kohden Corp.), and the intravesical pressure signal was amplified via a strain pressure amplifier (AP-601G, Nihon Kohden Corp.), measured with a polygraph (RMP-6008, Nihon Kohden Corp.) and recorded on a thermal array recorder (RTA-1200, Nihon Kohden Corp.). […] The bladder capacity was calculated from the period of time until occurrence of micturition (infusion rate 6 ml/h×infusion time). […]

[3] = test system: dd male mice; assay: Acute toxicity test; type: in vivo; details: oral administration, mortality on the seventh day
Experimental: The test compound was administered orally or intraperitoneally to animals per group of dd male mice (body weight: 20±1 g). The minimum lethal dose (MLD) value was obtained by observing mortality on the seventh day after the administration.

[4] = Dark period (Active period), after oral administration
[5] = Dark period (Active period), before administration
[6] = Light period (Inactive period), after oral administration
[7] = Light period (Inactive period), before administration

SMILES: C[C@](O)(C(=O)Nc1cccc2c1C(=O)c1sccc1CS2(=O)=O)C(F)(F)F [Compound 1, (S)-(+)-N-(5,5-dioxido-10-oxo-4,10-dihydrothieno[3,2-c][1]benzothiepin-9-y1)-3,3,3-trifluoro-2-hydroxy-2-methylpropanamide]
- Total urine volume [1, 4]: 4.83 ± 0.83 mL/9 hours
- Urinary frequency [1, 4]: 6.7 ± 1.2 micturitions/9 hours
- Total urine volume [1, 5]: 3.57 ± 0.57 mL/9 hours
- Urinary frequency [1, 5]: 10.0 ± 1.3 micturitions/9 hours
- Total urine volume [1, 6]: 4.76 ± 0.78 mL/9 hours
- Urinary frequency [1, 6]: 5.3 ± 0.4 micturitions/9 hours
- Total urine volume [1, 7]: 4.80 ± 0.31 mL/9 hours
- Urinary frequency [1, 7]: 8.7 ± 0.8 micturitions/9 hours
- effect on urinary frequency (in words) ([1]; summary of Test Example 1): significantly decreased
- effect on voided volume per micturition (in words) ([1]; summary of Test Example 1): tended to increase
- effect on bladder capacity (in words) [2]: tended to increase
- effect on micturition volume (in words) [2]: significantly increased
- minimum lethal dose (MLD) [3]: > 1000 mg/kg
